# Active and inactive are the calls of the source. The calls are words filed in the database; no cut-off is given here.
# Legend:
# Mycobacterium ulcerans [1] = assay: Antimicrobial activity against Mycobacterium ulcerans ATCC 19423 agar dilution method; type: functional
# Mycobacterium ulcerans [2] = assay: Antimicrobial activity against Mycobacterium ulcerans ATCC 19423 harboring pTY60H containing pCK0601 carrying the luxAB gene under the hsp60 promoter after 14 days determined according to CFU counts by bioluminescence method; type: functional; conditions: ATCC 19423, 336 h
# Mycobacterium ulcerans [3] = assay: Antimicrobial activity against Mycobacterium ulcerans ATCC 19423 harboring pTY60H assessed as 4-fold increase in reserpine-mediated inhibition of bacterial growth after 14 days; type: functional, organism-based
# Mycobacterium ulcerans [4] = assay: Antimicrobial activity against Mycobacterium ulcerans ATCC 19423 harboring pTY60H containing pCK0601 carrying the luxAB gene under the hsp60 promoter after 14 days determined according to RLU count by real-time luminescence method; type: functional; conditions: ATCC 19423, 336 h
# Mycobacterium ulcerans [5] = assay: Antimicrobial activity against Mycobacterium ulcerans ATCC 19423 harboring pTY60H carrying the luxAB gene under the hsp60 promoter determined after 14 days in presence of 2.5 ug/ml ATP-cassette transporter inhibitor reserpine; type: functional, organism-based
# Mycobacterium ulcerans [6] = assay: Antimicrobial activity against Mycobacterium ulcerans 1059 harboring pTY60K carrying the luxAB gene under the hsp60 promoter agar dilution method; type: functional
# Mycobacterium ulcerans [7] = assay: Antimicrobial activity against Mycobacterium ulcerans 1059 agar dilution method; type: functional
# Mycobacterium ulcerans [8] = assay: Antimicrobial activity against Mycobacterium ulcerans ATCC 19423 harboring pTY60H carrying the luxAB gene under the hsp60 promoter agar dilution method; type: functional
# Mycobacterium ulcerans [9] = assay: Antimicrobial activity against Mycobacterium ulcerans 1059 harboring pTY60K containing pMH94 carrying the luxAB gene under the hsp60 promoter after 14 days determined according to RLU count by real-time luminescence method; type: functional; conditions: Mycobacterium ulcerans, 1059, 336 h
# Mycobacterium ulcerans [10] = assay: Antimicrobial activity against Mycobacterium ulcerans ATCC 19423 harboring pTY60K containing pMH94 carrying the luxAB gene under the hsp60 promoter after 7 days determined according to RLU count by real-time luminescence method; type: functional; conditions: ATCC 19423, 168 h
# Mycobacterium ulcerans [11] = assay: Antimicrobial activity against Mycobacterium ulcerans 1059 harboring pTY60K containing pMH94 carrying the luxAB gene under the hsp60 promoter after 14 days determined according to CFU count by bioluminescence method; type: functional; conditions: Mycobacterium ulcerans, 1059, 336 h
# Mycobacterium ulcerans [12] = assay: Antimicrobial activity against Mycobacterium ulcerans ATCC 19423 harboring pTY60K containing pMH94 carrying the luxAB gene under the hsp60 promoter after 7 days determined according to CFU count by bioluminescence method; type: functional; conditions: ATCC 19423, 168 h
# Mycobacterium ulcerans [13] = assay: Antimicrobial activity against Mycobacterium ulcerans Cu001 agar dilution method; type: functional
# Mycobacterium ulcerans [14] = assay: Antimicrobial activity against Mycobacterium ulcerans ATCC 19423 harboring pTY60H assessed as 2-fold increase in reserpine-mediated inhibition of bacterial growth after 14 days; type: functional, organism-based
smiles,measurement,setting,value
CC[C@H]1OC(=O)[C@H](C)[C@@H](O[C@H]2C[C@@](C)(OC)[C@@H](O)[C@H](C)O2)[C@H](C)[C@@H](O[C@@H]2O[C@H](C)C[C@H](N(C)C)[C@H]2O)[C@](C)(O)C[C@@H](C)C(=O)[C@H](C)[C@@H](O)[C@]1(C)O [ERYTHROMYCIN],MIC,Mycobacterium ulcerans [1],> 16 µg/mL
same,MIC,Mycobacterium ulcerans [2],1 µg/mL
same,Activity,Mycobacterium ulcerans [3],Active
same,MIC,Mycobacterium ulcerans [4],0.5 µg/mL
same,Activity,Mycobacterium ulcerans [5],Active
CN[C@@H]1[C@H](O[C@H]2[C@H](O[C@H]3[C@H](O)[C@@H](O)[C@H](N=C(N)N)[C@@H](O)[C@@H]3N=C(N)N)O[C@@H](C)[C@]2(O)C=O)O[C@@H](CO)[C@H](O)[C@H]1O [STREPTOMYCIN],MIC,Mycobacterium ulcerans [1],0.25 µg/mL
same,MIC,Mycobacterium ulcerans [2],1 µg/mL
same,MIC,Mycobacterium ulcerans [4],1 µg/mL
same,MIC,Mycobacterium ulcerans [6],0.25 µg/mL
same,MIC,Mycobacterium ulcerans [7],0.25 µg/mL
same,MIC,Mycobacterium ulcerans [8],0.25 µg/mL
same,MIC,Mycobacterium ulcerans [9],0.13 µg/mL
same,MIC,Mycobacterium ulcerans [10],0.5 µg/mL
same,MIC,Mycobacterium ulcerans [11],0.13 µg/mL
same,MIC,Mycobacterium ulcerans [12],0.25 µg/mL
NNC(=O)c1ccncc1 [ISONIAZID],MIC,Mycobacterium ulcerans [7],> 40 µg/mL
same,MIC,Mycobacterium ulcerans [9],> 40 µg/mL
same,MIC,Mycobacterium ulcerans [10],> 40 µg/mL
same,MIC,Mycobacterium ulcerans [11],> 40 µg/mL
same,MIC,Mycobacterium ulcerans [12],> 40 µg/mL
CO[C@H]1/C=C/O[C@@]2(C)Oc3c(C)c(O)c4c(O)c(c(/C=N/N5CCN(C)CC5)c(O)c4c3C2=O)NC(=O)/C(C)=C\C=C\[C@H](C)[C@H](O)[C@@H](C)[C@@H](O)[C@@H](C)[C@H](OC(C)=O)[C@@H]1C [RIFAMPIN],MIC,Mycobacterium ulcerans [1],0.5 µg/mL
same,MIC,Mycobacterium ulcerans [2],≤ 0.03 µg/mL
same,MIC,Mycobacterium ulcerans [4],≤ 0.03 µg/mL
same,MIC,Mycobacterium ulcerans [6],0.5 µg/mL
same,MIC,Mycobacterium ulcerans [7],0.13 µg/mL
same,MIC,Mycobacterium ulcerans [8],0.5 µg/mL
same,MIC,Mycobacterium ulcerans [9],0.06 µg/mL
same,MIC,Mycobacterium ulcerans [10],0.03 µg/mL
same,MIC,Mycobacterium ulcerans [11],0.03 µg/mL
same,MIC,Mycobacterium ulcerans [12],≤ 0.016 µg/mL
CC(=O)NC[C@H]1CN(c2ccc(N3CCOCC3)c(F)c2)C(=O)O1 [LINEZOLID],MIC,Mycobacterium ulcerans [6],1 µg/mL
same,MIC,Mycobacterium ulcerans [7],1 µg/mL
same,MIC,Mycobacterium ulcerans [9],2 µg/mL
same,MIC,Mycobacterium ulcerans [10],1 µg/mL
same,MIC,Mycobacterium ulcerans [11],4 µg/mL
same,MIC,Mycobacterium ulcerans [12],1 µg/mL
CN[C@@H]1C[C@H](N)[C@@H](O)[C@H](O[C@H]2O[C@H](CO)[C@H](O)[C@@H]3O[C@@]4(O[C@@H]23)O[C@H]([C@H](N)CO)[C@H](O)[C@H](O)[C@H]4O)[C@H]1O [HYGROMYCIN],MIC,Mycobacterium ulcerans [1],≤ 12.5 µg/mL
same,MIC,Mycobacterium ulcerans [13],≤ 12.5 µg/mL
CC[C@H]1OC(=O)[C@H](C)[C@@H](O[C@H]2C[C@@](C)(OC)[C@@H](O)[C@H](C)O2)[C@H](C)[C@@H](O[C@@H]2O[C@H](C)C[C@H](N(C)C)[C@H]2O)[C@](C)(OC)C[C@@H](C)C(=O)[C@H](C)[C@@H](O)[C@]1(C)O [CLARITHROMYCIN],MIC,Mycobacterium ulcerans [6],0.25 µg/mL
same,MIC,Mycobacterium ulcerans [7],0.25 µg/mL
same,MIC,Mycobacterium ulcerans [9],0.13 µg/mL
same,MIC,Mycobacterium ulcerans [10],0.13 µg/mL
same,MIC,Mycobacterium ulcerans [11],0.25 µg/mL
same,MIC,Mycobacterium ulcerans [12],0.03 µg/mL
CN(C)[C@@H]1C(O)=C(C(N)=O)C(=O)[C@@]2(O)C(O)=C3C(=O)c4c(O)cccc4[C@@](C)(O)[C@H]3C[C@@H]12 [TETRACYCLINE],MIC,Mycobacterium ulcerans [1],10 µg/mL
same,MIC,Mycobacterium ulcerans [2],2.5 µg/mL
same,MIC,Mycobacterium ulcerans [4],2.5 µg/mL
same,Activity,Mycobacterium ulcerans [5],Active
same,MIC,Mycobacterium ulcerans [8],5 µg/mL
same,Activity,Mycobacterium ulcerans [14],Active
NC[C@H]1O[C@H](O[C@H]2[C@H](O)[C@@H](O[C@H]3O[C@H](CO)[C@@H](O)[C@H](N)[C@H]3O)[C@H](N)C[C@@H]2N)[C@H](O)[C@@H](O)[C@@H]1O [KANAMYCIN],MIC,Mycobacterium ulcerans [1],≤ 5 µg/mL
same,MIC,Mycobacterium ulcerans [13],≤ 5 µg/mL
COc1c(N2C[C@@H]3CCCN[C@@H]3C2)c(F)cc2c(=O)c(C(=O)O)cn(C3CC3)c12 [MOXIFLOXACIN],MIC,Mycobacterium ulcerans [1],≤ 0.016 µg/mL
same,MIC,Mycobacterium ulcerans [2],≤ 0.03 µg/mL
same,MIC,Mycobacterium ulcerans [4],≤ 0.03 µg/mL
same,MIC,Mycobacterium ulcerans [7],> 0.5 µg/mL
same,MIC,Mycobacterium ulcerans [8],0.03 µg/mL
same,MIC,Mycobacterium ulcerans [9],> 0.25 µg/mL
same,MIC,Mycobacterium ulcerans [10],0.03 µg/mL
same,MIC,Mycobacterium ulcerans [11],> 0.25 µg/mL
same,MIC,Mycobacterium ulcerans [12],0.03 µg/mL

# From ChEMBL document CHEMBL1275605, “Rapid assessment of antibacterial activity against Mycobacterium ulcerans by using recombinant luminescent strains” (2010)
